In patent US7326703B2, “(1,10B-Dihydro-2-(aminocarbonyl-phenyl)-5H-pyrazolo[1,5-c][1,3]benzoxazin-5-yl)phenyl methanone derivatives as HIV viral replication inhibitors” (priority 2004, dated 2008):
Read-outs that look alike come from different tables or passages of the source.

Legend:
HIV-1-MDR = assay: Cellular anti-viral assay in MT4-LTR-EGFP cells, multi-drug resistant HIV-1 virus; assay type: cell-based; settings: Human immunodeficiency virus 1, 72 h, read-out: Activity class for HIV-1-MDR test
Protocol: (§1) The compounds were tested in a cellular assay using the MT4-LTR-EGFP cells for anti-viral activity. […] The cellular assay was performed according to the following procedure.
(§2) HIV- or mock-infected MT4-LTR-EGFP cells were incubated for three days in the presence of various concentrations of the inhibitor. Upon infection, the GFP reporter is activated by the viral tat protein. At the end of the incubation period, the GFP signal was measured. In the virus control samples (in the absence of any inhibitor) the maximal fluorescent signal was obtained. The inhibitory activity of the compound was monitored on the virus-infected cells and was expressed as EC50 and EC90. These values represent the amount of the compound required to protect 50% and 90%, respectively, of the cells from virus infection. The toxicity of the compound was measured on the mock-infected cells and was expressed as CC50, which represents the concentration of compound required to inhibit the growth of the cells by 50%. The selectivity index (SI) (ratio CC50/EC50) is an indication of the selectivity of the anti-HIV activity of the inhibitor.

HIV-1 strain LAI = assay: Cellular anti-viral assay in MT4-LTR-EGFP cells, wild type HIV-1 strain LAI; assay type: cell-based; settings: Human immunodeficiency virus 1, 72 h, read-out: Activity class for HIV-1-LAI test
Protocol: as §1, §2

[1] = MT4-LTR-EGFP cells, three days incubation, GFP signal, average EC50 used where more than one run

Row | SMILES | EC50 (HIV-1-MDR) [nM] | EC50 (HIV-1 strain LAI) [nM] | EC50 (HIV-1 strain LAI; [1]) [nM]
1 | N#Cc1ccc(C(=O)C2Oc3ccccc3C3CC(c4ccc(C(=O)NC5CCCC5)cc4)=NN23)cc1 (stereo not shown) [Compound 44, 4-[5-(4-Cyano-Benzoyl)-1,10b-Dihydro-5H-Pyrazolo[1,5-c][1,3]Benzoxazin-2-yl]-N-Cyclopentyl-Benzamide] | < 1000 | < 1000 | –
2 | CCCc1ccc(C(=O)C2Oc3ccccc3C3CC(c4ccc(C(=O)NC5CCCC5)cc4)=NN23)cc1 (stereo not shown) [Compound 45] | < 1000 | – | < 1000
3 | CSc1ccc(C(=O)C2Oc3ccccc3C3CC(c4ccc(C(=O)NC5CCCC5)cc4)=NN23)cc1 (stereo not shown) [Compound 46] | < 1000 | – | < 1000
4 | CCc1ccc(C(=O)C2Oc3ccccc3C3CC(c4ccc(C(=O)NC5CCCC5)cc4)=NN23)cc1 (stereo not shown) [Compound 47] | < 1000 | – | < 1000
5 | O=C(NC1CCCC1)c1ccc(C2=NN3C(C(=O)c4ccc(N5CCOCC5)cc4)Oc4ccccc4C3C2)cc1 (stereo not shown) [Compound 48] | 1000 to 10000 | – | 1000 to 10000
6 | CC(C)(C)c1ccc(C(=O)C2Oc3ccccc3C3CC(c4ccc(C(=O)NC5CCCC5)cc4)=NN23)cc1 (stereo not shown) [Compound 50] | < 1000 | – | < 1000
7 | O=C(NC1CCCC1)c1ccc(C2=NN3C(C(=O)c4ccc([N+](=O)[O-])cc4)Oc4ccccc4C3C2)cc1 (stereo not shown) [Compound 52] | < 1000 | – | < 1000
8 | CS(=O)(=O)c1ccc(C(=O)C2Oc3ccccc3C3CC(c4ccc(C(=O)NC5CCCC5)cc4)=NN23)cc1 (stereo not shown) [Compound 53] | < 1000 | – | < 1000
9 | O=C(NC1CCCC1)c1ccc(C2=NN3C(C(=O)c4ccc(C5CCCCC5)cc4)Oc4ccccc4C3C2)cc1 (stereo not shown) [Compound 54] | 1000 to 10000 | – | 1000 to 10000
10 | O=C(NC1CCCC1)c1ccc(C2=NN3C(C(=O)c4ccc(C(F)(F)F)cc4)Oc4ccccc4C3C2)cc1 (stereo not shown) [Compound 55] | < 1000 | – | < 1000
11 | O=C(NC1CCCC1)c1ccc(C2=NN3C(C(=O)c4cccc(Br)c4)Oc4ccccc4C3C2)cc1 (stereo not shown) [Compound 58] | < 1000 | – | < 1000
